US7045528B2, “Benzofused heterozryl amide derivatives of thienopyridines useful as therapeutic agents, pharmaceutical compositions including the same, and methods for their use” (Agouron Pharmaceuticals, Inc., priority 2002, dated 2006)
Read-outs that look alike come from different tables or passages of the source.

Molecular target: T1, unphosphorylated VEGF-R2Δ50 (FLVK) (Homo sapiens, UniProt P35968, DEL940-989/E990V)
T1 construct: VEGF-R2Δ50 contains residues 806–939 and 990–1171; made in house; host or cells: baculovirus/insect cell system
T1 sequence (P35968 with tags, fused parts or gaps DEL940-989/E990V limits assumed): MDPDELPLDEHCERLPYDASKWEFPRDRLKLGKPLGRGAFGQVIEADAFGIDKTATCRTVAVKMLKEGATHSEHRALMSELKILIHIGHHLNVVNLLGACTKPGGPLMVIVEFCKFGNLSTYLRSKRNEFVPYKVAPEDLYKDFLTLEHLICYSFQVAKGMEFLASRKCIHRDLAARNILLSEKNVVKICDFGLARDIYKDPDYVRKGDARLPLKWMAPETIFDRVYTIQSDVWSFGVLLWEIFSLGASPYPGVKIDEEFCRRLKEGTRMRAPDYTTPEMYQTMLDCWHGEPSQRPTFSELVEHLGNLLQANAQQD
Assay: VEGF-R2 coupled spectrophotometric assay, unphosphorylated VEGF-R2Δ50 (FLVK)
Type: biochemical
Conditions: for inhibition at 0.05 µM: read-out: FLVK (% inh @ 50 nM)
From the text: VEGF-R2 Construct for Assay:
This construct determines the ability of a test compound to inhibit tyrosine kinase activity. A construct (VEGF-R2Δ50) of the cytosolic domain of human vascular endothelial growth factor receptor 2 (VEGF-R2) lacking the 50 central residues of the 68 residues of the kinase insert domain was expressed in a baculovirus/insect cell system. Of the 1356 residues of full-length VEGF-R2, VEGF-R2Δ50 contains residues 806–939 and 990–1171, and also one point mutation (E990V) within the kinase insert domain relative to wild-type VEGF-R2. Autophosphorylation of the purified construct was performed by incubation of the enzyme at a concentration of 4 μM in the presence of 3 mM ATP and 40 mM MgCl2 in 100 mM HEPES, pH 7.5, containing 5% glycerol and 5 mM DTT, at 4° C. for 2 h. […] See Parast et al., Biochemistry, 37, 16788–16801 (1998).
Coupled Spectrophotometric (FLVK-P) Assay
The production of ADP from ATP that accompanies phosphoryl transfer was coupled to oxidation of NADH using phosphoenolpyruvate (PEP) and a system having pyruvate kinase (PK) and lactic dehydrogenase (LDH). The oxidation of NADH was monitored by following the decrease of absorbance at 340 nm (e340=6.22 cm^−1 mM^−1) using a Beckman DU 650 spectrophotometer. Assay conditions for phosphorylated VEGF-R2Δ50 (indicated as FLVK-P in the tables below) were the following: 1 mM PEP; 250 μM NADH; 50 units of LDH/mL; 20 units of PK/mL; 5 mM DTT; 5.1 mM poly(E4Y1); 1 mM ATP; and 25 mM MgCl2 in 200 mM HEPES, pH 7.5. Assay conditions for unphosphorylated VEGF-R2Δ50 (indicated as FLVK in the tables) were the following: 1 mM PEP; 250 μM NADH; 50 units of LDH/mL; 20 units of PK/mL; 5 mM DTT; 20 mM poly(E4Y1); 3 mM ATP; and 60 mM MgCl2 and 2 mM MnCl2 in 200 mM HEPES, pH 7.5. Assays were initiated with 5 to 40 nM of enzyme. Ki values were determined by measuring enzyme activity in the presence of varying concentrations of test compounds. […] The binding inhibitions were fitted to equation as described by Morrison. The data were analyzed using Enzyme Kinetic and Kaleidagraph software.

[1] = 50 nM compound, unphosphorylated VEGF-R2Δ50

inhibition at 0.05 µM [1] [%]	Ki (unphosphorylated VEGF-R2Δ50) [nM]	Structure (SMILES)	inhibition at 0.05 µM [%]
6	88.8	CNC(=O)c1c(C)n(C)c2cc(Oc3ccnc4cc(C(=O)N(C)CCN(C)C)sc34)ccc12 [Example 29, N-[2-(Dimethylamino)ethyl]-7-({1,2-dimethyl-3-[(methylamino)carbonyl]-1H-indol-6-yl}oxy)-N-methylthieno[3,2-b]pyridine-2-carboxamide]	–
38	25.8	CNC(=O)c1cn(C)c2cc(Oc3ccnc4cc(C(=O)N5CC[C@@H](OC)C5)sc34)ccc12 [Example 22, 6-[2-(3-methoxypyrrolidine-1-carbonyl)-thieno[3,2-b]pyridin-7-yloxy]-1-methyl-1H-indole-3-carboxylic acid methylamide]	–
99	–	Cc1oc2cc(Oc3ccnc4ccsc34)ccc2c1C(=O)Nc1ccc2[nH]ccc2c1 [Example 113, 2-Methyl-6-(thieno[3,2-b]pyridin-7-yloxy)-benzofuran-3-carboxylic acid (1H-indol-5-yl)-amide]	–
4	–	CNC(=O)c1c(C)sc2cc(Oc3ccnc4cc(CN5CCCC5)sc34)ccc12 [Example 115, 2-Methyl-6-(2-[pyrrolidin-1-ylmethyl]thieno[3,2-b]pyridin-7-yloxy)benzo[b]thiophene-3-carboxylic acid methylamide]	–
41	24.9	CNC(=O)c1c(C)n(C)c2cc(Oc3ccnc4cc(-c5cccc(CN(C)C)n5)sc34)ccc12 [Example 52, 6-[2-(6-Dimethylaminomethyl-pyridin-2-yl)-thieno[3,2-b]pyridin-7-yloxy]-1,2-dimethyl-1H-indole-3-carboxyllc acid methylamide]	–
48	10.3	CCc1c(C(=O)NC)c2ccc(Oc3ccnc4cc(C(=O)N5CC[C@@H](O)C5)sc34)cc2n1C [Example 73, 2-Ethyl-6-[2-(3-hydroxy-pyrrolidine-1-carbonyl)-thieno[3,2-b]pyridin-7-yloxy]-1-methyl-1H-indole-3-carboxylic acid methylamide]	–
41	11.5	CNC(=O)c1c(C)n(C)c2cc(Oc3ccnc4cc(C(=O)N5C[C@H](OC)[C@H](OC)C5)sc34)ccc12 [Example 36, 6-[2-(3,4-Dimethoxy-pyrrolidine-1-carbonyl)-thieno[3,2-b]pyridin-7-yloxy]-1,2-dimethyl-1H-indole-3-carboxylic acid methylamide]	–
0	–	Cc1oc2cc(Oc3ccnc4ccsc34)ccc2c1C(=O)O [Example 100, 2-Methyl-6[thieno[3,2-b]pyridin-7-yloxy]benzofuran-3-carboxylic acid]	–
43	13.1	CNC(=O)c1cn(C)c2cc(Oc3ccnc4cc(C(=O)N5CC[C@@H](O)C5)sc34)ccc12 [Example 21, 6-{2-[3-(R)-hydroxy-pyrrolidine-1-carbonyl]thieno[3,2-b]pyridin-7-yloxy}-1-methyl-1H-indole-3-carboxylic acid methylamide]	–
61	–	Cc1oc2cc(Oc3ccnc4ccsc34)ccc2c1C(=O)NCCc1ccc(S(N)(=O)=O)cc1 [Example 108, 2-Methyl-6-(thieno[3,2-b]pyridin-7-yloxy)-benzofuran-3-carboxylic acid [2-(4-sulfamoyl-phenyl)-ethyl]-amide]	–
36	6.26	CNC(=O)c1c(C(F)(F)F)n(C)c2cc(Oc3ccnc4cc(-c5nccn5C)sc34)ccc12 [Example 76, 1-Methyl-6-[2-(1-methyl-1H-imidazol-2-yl)-thieno[3,2-b]pyridin-7-yloxy]-2-trifluoromethyl-1H-indole-3-carboxylic acid methylamide]	–
17	36.7	Cc1oc2cc(Oc3ccnc4ccsc34)ccc2c1C(=O)NCc1ccncc1 [Example 107, 2-Methyl-6-[Thieno(3,2-b)pyridin-7-yloxy]benzofuran-3-carboxylic acid 2-[(4-pyridyl)-methyl] amide]	–
19	78	CNC(=O)c1cn(C)c2cc(Oc3ccnc4cc(-c5nccn5C)sc34)ccc12 [Example 23, 1-Methyl-6-[2-(1-methyl-1H-imidazol-2-yl)-thieno[3,2-b]pyridin-7-yloxy]-1H-indole-3-carboxylic acid methylamide]	–
16	119	CNC(=O)c1c(C)sc2cc(Oc3ccnc4cc(COCCN5CCCC5)sc34)ccc12 [Example 114, 2-Methyl-6(2-[2-(pyrrolidin-1-yl)ethoxymethyl]thieno[3,2-b]pyridin-7-yloxy)benzo[b]thiophene-3-carboxylic acid methylamide]	–
90	–	Cc1cc2nccc(Oc3ccc4c(C(=O)NCCCN5CCOCC5)c(C)sc4c3)c2s1 [Example 140, 2-Methyl-6-(2-methylthieno[3,2-b]pyridin-7-yloxy)benzo[b]thiophene-3-carboxylic acid (3-morpholin-4ylpropyl)-amide]	–
36	36.5	CNC(=O)c1c(C)n(C)c2cc(Oc3ccnc4cc(-c5ncccn5)sc34)ccc12 [Example 50, 1,2-Dimethyl-6-(2-pyrimidin-2-yl-thieno[3,2-b]pyridin-7-yloxy)-1H-indole-3-carboxylic acid methylamide]	–
41	19.7	CNC(=O)c1c(C)n(C)c2cc(Oc3ccnc4cc(-c5nc(C(C)(C)O)co5)sc34)ccc12 [Example 47, 6-{2-[4-(1-Hydroxy-1-methyl-ethyl)-oxazol-2-yl]-thieno[3,2-b]pyridin-7-yloxy}1,2-dimethyl-1H-indole-3-carboxylic acid methylamide]	–
21	–	Cc1oc2cc(Oc3ccnc4ccsc34)ccc2c1C(=O)NCCC1CCCN1C (stereo not shown) [Example 110, 2-Methyl-6-(thieno[3,2-b]pyridin-7-yloxy)-benzofuran-3-carboxylic acid [2-(1-methyl-pyrrolidin-2-yl)-ethyl]-amide]	–
96	–	Cc1cc(NC(=O)c2c(C)oc3cc(Oc4ccnc5ccsc45)ccc23)n[nH]1 [Example 111, 2-Methyl-6-(thieno[3,2-b]pyridin-7-yloxy)-benzofuran-3-carboxylic acid (5-methyl-1H-pyrazol-3-yl)-amide]	–
–	–	CCn1c(C)c(C(=O)NC)c2ccc(Oc3ccnc4cc(C(=O)N5CCC5)sc34)cc21 [Example 71, 6-[2-(Azetidine-1-carbonyl)thieno[3,2-b]pyridin-7-yloxy]-1-ethyl-2-methyl-1H-indole-3-carboxylic acid methylamide]	5
4	–	CNC(=O)c1c(C)sc2cc(Oc3ccnc4cc(CN(C)C)sc34)ccc12 [Example 116, 6-(2-[Dimethylaminomethyl]thieno[3,2-b]pyridin-7-yloxy)-2-methylbenzo[b]thiophene-3-carboxylic acid methylamide]	–
51	9.61	CCc1oc2cc(Oc3ccnc4cc(C(=O)N5CCC[C@H]5COC)sc34)ccc2c1C(=O)NC [Example 96, 2-ethyl-6-(2-[(S)-2-(methoxymethyl)pyrrolidine-1-carbonyl]thieno[3,2-b]pyridin-7-yloxy)-benzofuran-3-carboxylic acid methyl amide]	–
37	–	CCC(=O)c1cc2nccc(Oc3ccc4c(C(=O)NCCCN5CCOCC5)c(C)n(C)c4c3)c2s1 [Example 68, 1,2-Dimethyl-6-(2-propionyl-thieno[3,2-b]pyridin-7-yloxy)-1H-indole-3-carboxylic acid (3-morpholin-4-yl-propyl)-amide]	–
58	12.5	Cc1c(C(=O)NCC(C)C)c2ccc(Oc3ccnc4cc(-c5nccs5)sc34)cc2n1C [Example 67, 1,2-Dimethyl-4(2-thiazol-2-yl-thieno[3,2-b]pyridin-7-yloxy)-1 indole-3-carboxylic acid isobutyl-amide]	–
82	–	Cc1oc2cc(Oc3ccnc4ccsc34)ccc2c1C(=O)NCCOC(C)C [Example 109, 2-Methyl-6-(thieno[3,2-b]pyridin-7-yloxy)-benzofuran-3-carboxylic acid (2-isopropoxy-ethyl)-amide]	–
40	–	Cc1cc2nccc(Oc3ccc4c(C(=O)NCCN5CCOCC5)c(C)sc4c3)c2s1 [Example 139, 2-Methyl-6-(2-methylthieno[3,2-b]pyridin-7-yloxy)benzo[b]thiophene-3-carboxylic acid (2-morpholin-4-yl-ethyl)-amide]	–
